Earlier results on one compound are cited in patent US11052042B2, “Aqueous suspensions of ciclesonide for nebulisation” (Covis Pharma B.V., priority 2003, dated 2021).

Take `CC(C)C(=O)OCC(=O)[C@@]12O[C@H](C3CCCCC3)O[C@@H]1C[C@H]1[C@@H]3CCC4=CC(=O)C=C[C@]4(C)[C@H]3[C@@H](O)C[C@@]12C` [Ciclesonide, [11β,16α(R)]-16,17-[(Cyclohexylmethylen)bis(oxy)]-11-hydroxy-21-(2-methyl-1-oxopropoxy)pregna-1,4-dien-3,20-dion]: for the setting “in vivo”, the “concentration of the drug in the lungs” value is given as “high”, the “metabolism by liver oxidases” value is reported as “very high” and the plasma half-life entry is “low”. The “absorption after oral administration” value (oral administration) is reported as “only moderately absorbed”. For the setting “relative to budesonide”, the “anti-inflammatory activity compared with budesonide” value is reported as “higher” and the “systemic activity compared with budesonide” value is “three times lower”.
